Source: patent US10906896B2, “Compositions and methods for inhibiting kinases” (Inhibikase Therapeutics, Inc., priority 2015, dated 2021)
pIC50: −log10 of the molar value.

Experiments:
[1] = test system: Ba/F3 cells harboring BCR-ABL E255K; experiment: Ba/F3 proliferation, BCR-ABL E255K; assay type: cell-based; details: 48 hrs, IL-3 withdrawn
[2] = test system: Ba/F3 cells harboring BCR-ABL E255V; experiment: Ba/F3 proliferation, BCR-ABL E255V; assay type: cell-based; details: 48 hrs, IL-3 withdrawn
Description: (§1) IL-3 was subsequently withdrawn from these populations.
(§2) Final concentrations of each compound were 10 μM, 1 μM, 100 nM, 10 nM, 1 nM, 0.1 nM, 0 nM (plus a blank-media only).

[3] = test system: untransduced Ba/F3 cells grown in the presence of IL-3; experiment: Ba/F3 proliferation, parental cells (Cell Titer Glo); assay type: cell-based; details: 48 hrs, with IL-3
Description: as §1, §2

[4] = test system: Ba/F3 cells harboring BCR-ABL T315I; experiment: Ba/F3 proliferation, BCR-ABL T315I; assay type: cell-based; details: 48 hrs, IL-3 withdrawn
Description: as §1, §2

[5] = test system: Ba/F3 cells harboring BCR-ABL F359V; experiment: Ba/F3 proliferation, BCR-ABL F359V; assay type: cell-based; details: 48 hrs, IL-3 withdrawn
[6] = test system: JCV laboratory strain MAD-1; experiment: JCV antiviral potency in Cos 7 cells; assay type: cell-based, JC polyomavirus (JCV)
[7] = target: c-Abl1 (Homo sapiens (Human), UniProt P00519); experiment: c-Abl1 IC50 (FAM-labeled peptide kinase assay); assay type: biochemical
[8] = test system: Ba/F3 cells harboring BCR-ABL Y253H; experiment: Ba/F3 proliferation, BCR-ABL Y253H; assay type: cell-based; details: 48 hrs, IL-3 withdrawn
Description: as §1, §2

[9] = test system: BCR-ABL; details: cited from earlier work

Chain of c-Abl1 (P00519 whole entry): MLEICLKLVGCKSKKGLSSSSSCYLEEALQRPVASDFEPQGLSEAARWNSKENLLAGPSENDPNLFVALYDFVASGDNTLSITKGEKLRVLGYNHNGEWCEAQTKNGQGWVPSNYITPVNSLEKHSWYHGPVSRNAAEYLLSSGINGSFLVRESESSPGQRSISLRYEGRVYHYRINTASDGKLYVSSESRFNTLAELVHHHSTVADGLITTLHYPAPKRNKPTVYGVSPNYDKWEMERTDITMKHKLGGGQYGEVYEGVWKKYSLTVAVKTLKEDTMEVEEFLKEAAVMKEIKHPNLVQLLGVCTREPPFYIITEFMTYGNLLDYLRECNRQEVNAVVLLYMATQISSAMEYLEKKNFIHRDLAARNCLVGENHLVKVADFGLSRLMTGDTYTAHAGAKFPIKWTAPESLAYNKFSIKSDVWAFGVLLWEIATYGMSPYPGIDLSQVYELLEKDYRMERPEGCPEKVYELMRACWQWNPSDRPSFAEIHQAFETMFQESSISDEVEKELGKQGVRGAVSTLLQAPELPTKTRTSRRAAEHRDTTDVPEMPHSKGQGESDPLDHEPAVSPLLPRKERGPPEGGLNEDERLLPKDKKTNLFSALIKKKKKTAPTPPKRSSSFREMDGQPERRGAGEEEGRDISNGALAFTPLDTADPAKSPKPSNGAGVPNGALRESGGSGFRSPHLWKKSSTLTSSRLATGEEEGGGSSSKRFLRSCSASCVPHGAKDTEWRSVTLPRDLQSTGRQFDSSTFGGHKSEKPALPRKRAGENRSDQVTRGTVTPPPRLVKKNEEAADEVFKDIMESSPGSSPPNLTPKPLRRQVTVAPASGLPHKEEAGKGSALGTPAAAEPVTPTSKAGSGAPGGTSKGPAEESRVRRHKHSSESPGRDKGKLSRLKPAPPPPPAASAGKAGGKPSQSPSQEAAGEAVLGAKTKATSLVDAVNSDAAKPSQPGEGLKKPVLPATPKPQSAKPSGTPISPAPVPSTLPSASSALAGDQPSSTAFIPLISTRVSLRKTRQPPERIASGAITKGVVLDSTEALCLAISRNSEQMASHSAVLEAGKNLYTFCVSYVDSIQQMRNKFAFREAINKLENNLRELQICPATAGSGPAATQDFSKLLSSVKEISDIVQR

| SMILES | IC50 [1] | IC50 [2] | IC50 [4] | IC50 [5] | pIC50 [7] | IC50 [8] | IC50 [3] | antiviral activity against JCV [6] | potency as an inhibitor of BCR-ABL relative to Gleevec [9] |
| --- | --- | --- | --- | --- | --- | --- | --- | --- | --- |
| Cc1ccc(-c2cncc(-c3ccnc(Nc4cc(NC(=O)c5ccc(CN6CCN(C)CC6)cc5)ccc4C)n3)c2)nc1 [Compound 820] | 204 nM | 2670 nM | 2300 nM | 260 nM |  |  | 2480 nM |  |  |
| Cc1ccc(NC(=O)c2ccc(CN3CCN(C)CC3)cc2)cc1Nc1nccc(-c2cncc(C3=NN=C(C(=O)Nc4cn[nH]c4)C3)c2)n1 [Compound 118] |  |  |  |  |  |  |  | little antiviral activity |  |
| Cc1ccc(NC(=O)c2ccc(CN3CCN(C)CC3)cc2)cc1Nc1nccc(-c2cncc(-c3snnc3C)c2)n1 [Compound 8240] |  |  |  |  | < 6.00 |  |  |  |  |
| Cc1cc(-c2cncc(-c3ccnc(Nc4cc(NC(=O)c5ccc(CN6CCN(C)CC6)cc5)ccc4C)n3)c2)sn1 [Compound 8190] | 390 nM | 997 nM | 2680 nM | 236 nM |  |  | 2240 nM |  |  |
| Cc1cc(NC(=O)C2=NN=C(c3cncc(-c4ccnc(Nc5cc(NC(=O)c6ccc(CN7CCN(C)CC7)cc6)ccc5C)n4)c3)C2)ccn1 [Compound 103] | 196 nM | 1200 nM | 2910 nM | 135 nM |  | 2590 nM | 2920 nM |  |  |
| Cc1cnc(-c2cncc(-c3ccnc(Nc4cc(NC(=O)c5ccc(CN6CCN(C)CC6)cc5)ccc4C)n3)c2)s1 [Compound 8280] | 234 nM | 2390 nM | 2770 nM | 251 nM |  |  | 2610 nM |  |  |
| Cc1cn(-c2cc(NC(=O)c3ccc(C)c(Nc4nccc(-c5cccnc5)n4)c3)cc(C(F)(F)F)c2)cn1 [Tasigna, nilotinib] |  |  |  |  |  |  |  |  | ≤ 20 × |

Continued, in another order:

| IC50 [1] | IC50 [2] | IC50 [4] | IC50 [5] | pIC50 [7] | IC50 [8] | SMILES | IC50 [3] | antiviral activity against JCV [6] | potency as an inhibitor of BCR-ABL relative to Gleevec [9] |
| --- | --- | --- | --- | --- | --- | --- | --- | --- | --- |
| 80.4 nM | 1440 nM | 2480 nM | 375 nM |  |  | Cc1csc(-c2cncc(-c3ccnc(Nc4cc(NC(=O)c5ccc(CN6CCN(C)CC6)cc5)ccc4C)n3)c2)n1 [Compound 8290] | 2580 nM |  |  |
| 90.9 nM | 661 nM | 2590 nM | 46.7 nM |  |  | Cc1ccc(NC(=O)c2ccc(CN3CCN(C)CC3)cc2)cc1Nc1nccc(-c2cncc(-c3ccn(C)n3)c2)n1 [Compound 832] | 2480 nM |  |  |
| 45.9 nM | 1030 nM | 2790 nM | 203 nM |  |  | Cc1ccc(NC(=O)c2ccc(CN3CCN(C)CC3)cc2)cc1Nc1nccc(-c2cncc(-c3nccs3)c2)n1 [Compound 8270] | 2520 nM |  |  |
| 46.9 nM | 739 nM | 2120 nM | 161 nM |  | 1430 nM | Cc1cc(NC(=O)C2=NN=C(c3cncc(-c4ccnc(Nc5cc(NC(=O)c6ccc(CN7CCN(C)CC7)cc6)ccc5C)n4)c3)C2)[nH]n1 [Compound 113] | 2060 nM |  |  |
